Measured values reported in article PMC10092094 (Chemmedchem, 2022).
pIC50: −log10 of the molar value.

Assays:
OGG1 [1] = target: T1, OGG1 (Homo sapiens, UniProt O15527); assay: biochemical
OGG1 [2] = target: T1, OGG1; assay: Differential scanning fluorimetry; assay type: binding
[3] = IC50, biochemical inhibition, single replicate
[4] = IC50 (CI95), biochemical inhibition, confidence interval 95 in parentheses

T1 sequence (O15527 whole entry): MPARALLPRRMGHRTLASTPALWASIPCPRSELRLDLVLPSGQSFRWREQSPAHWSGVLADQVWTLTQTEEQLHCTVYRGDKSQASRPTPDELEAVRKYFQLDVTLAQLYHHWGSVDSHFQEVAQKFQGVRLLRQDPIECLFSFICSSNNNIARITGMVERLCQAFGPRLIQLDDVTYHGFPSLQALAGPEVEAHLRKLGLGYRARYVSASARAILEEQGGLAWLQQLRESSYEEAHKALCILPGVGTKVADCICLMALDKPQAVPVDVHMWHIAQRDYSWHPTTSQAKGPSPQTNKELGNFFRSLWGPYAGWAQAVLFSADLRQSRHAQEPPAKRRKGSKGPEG

Row | pIC50 (OGG1 [1]; [3]) | DSF stabilization (ΔT) (OGG1 [2]) [K] | pIC50 (OGG1 [1]; [4]) | Structure (SMILES)
1 | 5.51 | 4.1 |  | COc1ccc(NC(=O)N2CCC(n3c(=O)[nH]c4c(Br)cccc43)CC2)cc1 [Compound 47, 4‐(4‐bromo‐2‐oxo‐2,3‐dihydro‐1H‐1,3‐benzodiazol‐1‐yl)‐N‐(4‐methoxyphenyl)piperidine‐1‐carboxamide]
2 |  | 5.1 | 5.36 | COc1ccc(NC(=O)N2CCC(n3c(=O)[nH]c4c(Br)cccc43)CC2)cc1OC [Compound 56, 4‐(4‐bromo‐2‐oxo‐2,3‐dihydro‐1H‐1,3‐benzodiazol‐1‐yl)‐N‐(3,4‐dimethoxyphenyl)piperidine‐1‐carboxamide]
3 |  | 1.8 | 6.70 | COc1cc(NC(=O)N2CCC(n3c(=O)[nH]c4c(Br)cccc43)CC2)ccc1C [Compound 55, 4‐(4‐bromo‐2‐oxo‐2,3‐dihydro‐1H‐1,3‐benzodiazol‐1‐yl)‐N‐(3‐methoxy‐4‐methylphenyl)piperidine‐1‐carboxamide]
4 |  | 3.8 | 6.20 | Cc1cccc2c1[nH]c(=O)n2C1CCN(C(=O)Nc2ccc(I)cc2)CC1 [Compound 20, 4‐(4‐methyl‐2‐oxo‐2,3‐dihydro‐1H‐1,3‐benzodiazol‐1‐yl)‐N‐(4‐iodophenyl)piperidine‐1‐carboxamide]
5 | 5.06 | 2.2 |  | Cc1cccc2[nH]c(=O)n(C3CCN(C(=O)Nc4ccc(I)cc4)CC3)c12 [Compound 23, 4‐(7‐methyl‐2‐oxo‐2,3‐dihydro‐1H‐1,3‐benzodiazol‐1‐yl)‐N‐(4‐iodophenyl)piperidine‐1‐carboxamide]
6 |  | 4.2 | 6.72 | O=C(Nc1ccc(Br)cc1)N1CCC(n2c(=O)[nH]c3c(Br)cccc32)CC1 [Compound 44, 4‐(4‐bromo‐2‐oxo‐2,3‐dihydro‐1H‐1,3‐benzodiazol‐1‐yl)‐N‐(4‐bromophenyl)piperidine‐1‐carboxamide]
7 |  | 4.7 | 5.54 | O=C(Nc1ccc(Cl)c(Cl)c1)N1CCC(n2c(=O)[nH]c3ccccc32)CC1 [Compound 9, N‐(3,4‐dichlorophenyl)‐4‐(2‐oxo‐2,3‐dihydro‐1H‐1,3‐benzodiazol‐1‐yl)piperidine‐1‐carboxamide]
8 |  | 2.1 | 5.15 | O=C(Nc1ccc(Br)cc1)N1CCC(n2c(=O)[nH]c3ccccc32)CC1 [Compound 7, N‐(4‐bromophenyl)‐4‐(2‐oxo‐2,3‐dihydro‐1H‐1,3‐benzodiazol‐1‐yl)piperidine‐1‐carboxamide]
9 |  | 4.2 | 6.46 | O=C(Nc1ccc(Cl)cc1)N1CCC(n2c(=O)[nH]c3c(Br)cccc32)CC1 [Compound 43, 4‐(4‐bromo‐2‐oxo‐2,3‐dihydro‐1H‐1,3‐benzodiazol‐1‐yl)‐N‐(4‐chlorophenyl)piperidine‐1‐carboxamide]
